In PubChem BioAssay (NCI):
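A five-concentration, 48-hour dose response in 96-well plates underlies each endpoint, interpolated linearly between surrounding concentrations. GI50: concentration for 50% inhibition of growth. At the TGI there is no net growth.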

How the values were obtained:
Test in all cases: growth of human tumour cells (NCI), 48 h
786-0 renal = system: 786-0 renal
A498 renal = system: A498 renal
A549 NSCLC = system: A549 NSCLC
ACHN renal = system: ACHN renal
BT-549 breast = system: BT-549 breast
CAKI-1 renal = system: CAKI-1 renal
CCRF-CEM leukemia = system: CCRF-CEM leukemia
COLO 205 colon = system: COLO 205 colon
DU-145 prostate = system: DU-145 prostate
HCC-2998 colon = system: HCC-2998 colon
HCT-116 colon = system: HCT-116 colon
HCT-15 colon = system: HCT-15 colon
HL-60(TB) leukemia = system: HL-60(TB) leukemia
HOP-62 NSCLC = system: HOP-62 NSCLC
HOP-92 NSCLC = system: HOP-92 NSCLC
HS 578T breast = system: HS 578T breast
HT29 colon = system: HT29 colon
IGROV1 ovarian = system: IGROV1 ovarian
K-562 leukemia = system: K-562 leukemia
KM12 colon = system: KM12 colon
LOX IMVI melanoma = system: LOX IMVI melanoma
M14 melanoma = system: M14 melanoma
MALME-3M melanoma = system: MALME-3M melanoma
MCF7 breast = system: MCF7 breast
MDA-MB-231 breast = system: MDA-MB-231 breast
MDA-MB-435 = system: MDA-MB-435
MOLT-4 leukemia = system: MOLT-4 leukemia
NCI-H226 lung = system: NCI-H226 lung
NCI-H23 lung = system: NCI-H23 lung
NCI-H460 lung = system: NCI-H460 lung
NCI-H522 lung = system: NCI-H522 lung
NCI/ADR-RES ovarian = system: NCI/ADR-RES ovarian
OVCAR-3 ovarian = system: OVCAR-3 ovarian
OVCAR-4 ovarian = system: OVCAR-4 ovarian
OVCAR-5 ovarian = system: OVCAR-5 ovarian
OVCAR-8 ovarian = system: OVCAR-8 ovarian
PC-3 prostate = system: PC-3 prostate
RPMI-8226 leukemia = system: RPMI-8226 leukemia
RXF 393 renal = system: RXF 393 renal
SF-268 CNS = system: SF-268 CNS
SF-295 CNS = system: SF-295 CNS
SF-539 CNS = system: SF-539 CNS
SK-MEL-2 melanoma = system: SK-MEL-2 melanoma
SK-MEL-28 melanoma = system: SK-MEL-28 melanoma
SK-MEL-5 melanoma = system: SK-MEL-5 melanoma
SK-OV-3 ovarian = system: SK-OV-3 ovarian
SN12C renal = system: SN12C renal
SNB-19 CNS = system: SNB-19 CNS
SNB-75 CNS = system: SNB-75 CNS
SR leukemia = system: SR leukemia
SW-620 colon = system: SW-620 colon
T-47D breast = system: T-47D breast
TK-10 renal = system: TK-10 renal
U251 CNS = system: U251 CNS
UACC-257 melanoma = system: UACC-257 melanoma
UACC-62 melanoma = system: UACC-62 melanoma
UO-31 renal = system: UO-31 renal

SMILES: CS(=O)(=O)Nc1ccc(Nc2c3ccccc3nc3cc(N)ccc23)cc1
- GI50 (786-0 renal): 0.277 µM
- TGI (786-0 renal): 4.66 µM
- GI50 (A498 renal): 1.32 µM
- TGI (A498 renal): 17.4 µM
- GI50 (A549 NSCLC): 0.062 µM
- TGI (A549 NSCLC): 15.6 µM
- GI50 (ACHN renal): 0.231 µM
- TGI (ACHN renal): 17.8 µM
- GI50 (BT-549 breast): 1.35 µM
- TGI (BT-549 breast): 8.41 µM
- GI50 (CAKI-1 renal): 0.319 µM
- TGI (CAKI-1 renal): 13 µM
- GI50 (CCRF-CEM leukemia): 0.0776 µM
- TGI (CCRF-CEM leukemia): 2.04 µM
- GI50 (COLO 205 colon): 2.51 µM
- TGI (COLO 205 colon): 20 µM
- GI50 (DU-145 prostate): 0.48 µM
- TGI (DU-145 prostate): 26 µM
- GI50 (HCC-2998 colon): 5.22 µM
- TGI (HCC-2998 colon): 24.4 µM
- GI50 (HCT-116 colon): 0.717 µM
- TGI (HCT-116 colon): 29.2 µM
- GI50 (HCT-15 colon): 11 µM
- TGI (HCT-15 colon): > 100 µM
- GI50 (HL-60(TB) leukemia): 0.769 µM
- TGI (HL-60(TB) leukemia): 8.51 µM
- GI50 (HOP-62 NSCLC): 0.26 µM
- TGI (HOP-62 NSCLC): 10.2 µM
- GI50 (HOP-92 NSCLC): 0.398 µM
- TGI (HOP-92 NSCLC): 4.4 µM
- GI50 (HS 578T breast): 1.72 µM
- TGI (HS 578T breast): 13.4 µM
- GI50 (HT29 colon): 5.15 µM
- TGI (HT29 colon): 31.7 µM
- GI50 (IGROV1 ovarian): 5.38 µM
- TGI (IGROV1 ovarian): > 73.6 µM
- GI50 (K-562 leukemia): 1.31 µM
- TGI (K-562 leukemia): 23.9 µM
- GI50 (KM12 colon): 0.499 µM
- TGI (KM12 colon): 7.14 µM
- GI50 (LOX IMVI melanoma): 0.418 µM
- TGI (LOX IMVI melanoma): 15.2 µM
- GI50 (M14 melanoma): 0.361 µM
- TGI (M14 melanoma): 7.1 µM
- GI50 (MALME-3M melanoma): 0.62 µM
- TGI (MALME-3M melanoma): 3.66 µM
- GI50 (MCF7 breast): 0.052 µM
- TGI (MCF7 breast): 9.16 µM
- GI50 (MDA-MB-231 breast): 12.4 µM
- TGI (MDA-MB-231 breast): 34 µM
- GI50 (MDA-MB-435): 5.79 µM
- TGI (MDA-MB-435): 21.6 µM
- GI50 (MOLT-4 leukemia): 0.0194 µM
- TGI (MOLT-4 leukemia): 0.987 µM
- GI50 (NCI-H226 lung): 0.246 µM
- TGI (NCI-H226 lung): 3.89 µM
- GI50 (NCI-H23 lung): 0.436 µM
- TGI (NCI-H23 lung): 12.8 µM
- GI50 (NCI-H460 lung): 0.0255 µM
- TGI (NCI-H460 lung): 2.6 µM
- GI50 (NCI-H522 lung): 0.164 µM
- TGI (NCI-H522 lung): 2.69 µM
- GI50 (NCI/ADR-RES ovarian): > 100 µM
- TGI (NCI/ADR-RES ovarian): > 100 µM
- GI50 (OVCAR-3 ovarian): 1.7 µM
- TGI (OVCAR-3 ovarian): 8.83 µM
- GI50 (OVCAR-4 ovarian): 2.92 µM
- TGI (OVCAR-4 ovarian): 26.8 µM
- GI50 (OVCAR-5 ovarian): 5.57 µM
- TGI (OVCAR-5 ovarian): 39.7 µM
- GI50 (OVCAR-8 ovarian): 0.376 µM
- TGI (OVCAR-8 ovarian): 22.2 µM
- GI50 (PC-3 prostate): 1.31 µM
- TGI (PC-3 prostate): 27.1 µM
- GI50 (RPMI-8226 leukemia): 0.567 µM
- TGI (RPMI-8226 leukemia): 6.84 µM
- GI50 (RXF 393 renal): 12.5 µM
- TGI (RXF 393 renal): 34.9 µM
- GI50 (SF-268 CNS): 0.0222 µM
- TGI (SF-268 CNS): 5.69 µM
- GI50 (SF-295 CNS): 0.227 µM
- TGI (SF-295 CNS): 6.79 µM
- GI50 (SF-539 CNS): 0.531 µM
- TGI (SF-539 CNS): 9.47 µM
- GI50 (SK-MEL-2 melanoma): 2.26 µM
- TGI (SK-MEL-2 melanoma): 7.04 µM
- GI50 (SK-MEL-28 melanoma): 1.9 µM
- TGI (SK-MEL-28 melanoma): 16.2 µM
- GI50 (SK-MEL-5 melanoma): 0.615 µM
- TGI (SK-MEL-5 melanoma): 5.45 µM
- GI50 (SK-OV-3 ovarian): 1.31 µM
- TGI (SK-OV-3 ovarian): 27.7 µM
- GI50 (SN12C renal): 0.15 µM
- TGI (SN12C renal): 4.88 µM
- GI50 (SNB-19 CNS): 0.241 µM
- TGI (SNB-19 CNS): 15.4 µM
- GI50 (SNB-75 CNS): 0.726 µM
- TGI (SNB-75 CNS): 12.4 µM
- GI50 (SR leukemia): 0.035 µM
- TGI (SR leukemia): 1.19 µM
- GI50 (SW-620 colon): 0.561 µM
- TGI (SW-620 colon): 30 µM
- GI50 (T-47D breast): 0.0806 µM
- TGI (T-47D breast): 2.52 µM
- GI50 (TK-10 renal): 6.08 µM
- TGI (TK-10 renal): 31.7 µM
- GI50 (U251 CNS): 0.0794 µM
- TGI (U251 CNS): 1.3 µM
- GI50 (UACC-257 melanoma): 1.48 µM
- TGI (UACC-257 melanoma): 14.9 µM
- GI50 (UACC-62 melanoma): 0.555 µM
- TGI (UACC-62 melanoma): 14.8 µM
- GI50 (UO-31 renal): 3.13 µM
- TGI (UO-31 renal): > 100 µM
